Assay results as given in article PMC7413254 (Nature Communications, 2020).
“And” between values parts separate entries of the source, which are not always exact repeats. Equal entries are not always repeated. Where two headings read alike, the source gives them in different places.

Tests used:
PfCRT^3D7 [1] = target: T1, PfCRT^3D7 (Plasmodium falciparum, UniProt Q8IBZ9); assay: cell-based; type: cell-based
Excerpt: (§1) The orientation of PfCRT in the parasite’s DV membrane, and also in the oocyte plasma membrane, is such that its N- and C-termini extend into the cytosol. The oocytes were suspended in a reaction buffer adjusted to pH 5.5 to mimic the pH of the DV lumen[1],[2]. In this scenario, the transport of a substrate via PfCRT from the acidic extracellular solution into the oocyte cytosol[15] is analogous to the parasite’s PfCRT-mediated efflux of a substrate from the acidic DV and into the cytosol. Unless specified otherwise, this is the direction in which substrate transport was measured in the oocyte assays.
(§2) Unless specified otherwise, the transport assays were conducted over 1.5 h at 27.5 °C and the reaction buffer was ND96 (96 mM NaCl, 2 mM KCl, 1 mM MgCl2, 1.8 mM CaCl2, 10 mM MES and 10 mM Tris-base) at pH 5.5.
(§3) Ten oocytes were washed twice with the relevant ND96 buffer. […] The assay was terminated by removing the reaction buffer and washing the oocytes with ice-cold ND96 buffer. The oocytes were lysed in 10% (w/v) sodium dodecyl sulfate (SDS) and the radioactivity accumulated within each oocyte was measured with a MicroBeta^2 microplate liquid scintillation analyser (PerkinElmer).
(§4) At least four independent experiments were performed (on different days and using oocytes from different frogs), and within each experiment measurements were made from ten oocytes per treatment.

PfCRT^3D7 [2] = target: T1, PfCRT^3D7; assay: cell-based; type: cell-based; details: for Trans-stimulation data: total [3H]CQ transport: normalised to the oocyte type control (control = 100)
In short: (§5)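 Transport measured in Xenopus oocytes expressing the transporters, 1.5 h at 27.5 °C in ND96 pH 5.5 unless noted. For trans-stimulation, VF-6 injected in 25 nL ND96 at pH 5.0–7.0 or Na^+-free (choline) buffer; intracellular levels based on ~400 nL oocyte volume. Ten oocytes per treatment, ≥4 experiments.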

PfNT1 = target: T2, PfNT1 (Plasmodium falciparum, UniProt Q8IDM6); assay: cell-based; type: cell-based; details: for Trans-stimulation data: total [3H]CQ transport: normalised to the oocyte type control (control = 100)
T2 construct: expressed in transfected cells; host or cells: Xenopus laevis oocytes (stage V-VI), cRNA-injected
In short: as §5

non-expressing oocytes [3] = assay: cells; type: cell-based, Xenopus laevis
Excerpt: as §1, §2, §3, §4

non-expressing oocytes [4] = type: cell-based, Xenopus laevis; details: for Trans-stimulation data: total [3H]CQ transport: normalised to the oocyte type control (control = 100)
Description: as §2
The intracellular concentrations were calculated using previous estimates of the volume of stage V–VI oocytes (~400 nL[60]). […] The oocytes were injected with VF-6 suspended in 25 nL ND96 buffer adjusted to pH 5.0, 5.5, 6.0 or 7.0, which corresponded to the injection of 2.5–250 fmol of H^+. The Na^+-dependence of the trans-stimulatory effect of VF-6 was assessed by injecting the oocytes with VF-6 suspended in ND96 buffer (pH 5.5) or a Na^+-free version of this buffer (the Na^+ was replaced with choline).
as §4

PfCRT^Ecu1110 [5] = target: T3, PfCRT^Ecu1110 (Plasmodium falciparum, UniProt Q9N623, A220S/I356L/K76T/N326D); assay: cell-based; type: cell-based; details: for Trans-stimulation data: total [3H]CQ transport / PfCRT-mediated [3H]CQ transport, trans-stimulation (% PfCRTEcu1110 control) / Total [3H]CQ transport, trans-stimulation by injected solute: PfCRTEcu1110 oocytes; for Trans-stimulation data: total [3H]CQ transport: normalised to the oocyte type control (control = 100); for Trans-stimulation data: PfCRT-mediated [3H]CQ transport: footnote b: due to solubility the highest intracellular concentration tested was 30 mM, normalised to the oocyte type control = 100
In short: as §5

PfCRT^Dd2 [6] = target: T4, PfCRT^Dd2 (Plasmodium falciparum, UniProt Q9N623, A220S/I356T/K76T/M74I/N326S/N75E/Q271E/R371I); assay: cell-based; type: cell-based; details: for Trans-stimulation data: total [3H]CQ transport / PfCRT-mediated [3H]CQ transport, trans-stimulation (% PfCRTDd2 control) / Total [3H]CQ transport, trans-stimulation by injected solute: PfCRTDd2 oocytes; for Trans-stimulation data: total [3H]CQ transport: normalised to the oocyte type control (control = 100); for PfCRT-mediated [3H]CQ transport, trans-stimulation by injected solute, PfCRTDd2 / Trans-stimulation data: PfCRT-mediated [3H]CQ transport: footnote b: due to solubility the highest intracellular concentration tested was 30 mM; for PfCRT-mediated [3H]CQ transport, trans-stimulation by injected solute, PfCRTDd2: background subtracted; for Trans-stimulation data: PfCRT-mediated [3H]CQ transport: normalised to the oocyte type control = 100
In short: as §5

PfCRT^Ecu1110 [7] = target: T3, PfCRT^Ecu1110; assay: [3H]CQ uptake into Xenopus oocytes, cis-inhibition by unlabelled solute; type: cell-based; details: PfCRTEcu1110 oocytes, background [3H]CQ accumulation subtracted, normalised to oocyte type control
In short: (§6)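 Radioactivity accumulated per oocyte, read by liquid scintillation after 10% SDS lysis, served as the uptake measure. Incubations ran 1.5 h at 27.5 °C in ND96 at pH 5.5, matching digestive-vacuole acidity.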

PfCRT^Dd2 [8] = target: T4, PfCRT^Dd2; assay: as above; type: cell-based; details: PfCRTDd2 oocytes, background [3H]CQ accumulation subtracted, normalised to oocyte type control
In short: as §6

[9] = PfCRT3D7 oocytes, footnote b: highest intracellular concentration tested was 30 mM (solubility)
[10] = footnote b: highest intracellular concentration tested was 30 mM (solubility), mean ± SEM, SEM
[11] = footnote b: highest intracellular concentration tested was 30 mM (solubility)
[12] = [test solute]i = 5 mM (intracellular), normalised to oocyte type control
[13] = cell marked b: highest intracellular concentration tested was 30 mM due to solubility
[14] = PfNT1 oocytes, footnote b: highest intracellular concentration tested was 30 mM (solubility)
[15] = non-expressing oocytes, footnote b: highest intracellular concentration tested was 30 mM (solubility)
[16] = 2nd of 6 trans-stimulation columns, footnote b: due to solubility the highest intracellular concentration tested was 30 mM, normalised to the oocyte type control = 100

T2 sequence (Q8IDM6 whole entry): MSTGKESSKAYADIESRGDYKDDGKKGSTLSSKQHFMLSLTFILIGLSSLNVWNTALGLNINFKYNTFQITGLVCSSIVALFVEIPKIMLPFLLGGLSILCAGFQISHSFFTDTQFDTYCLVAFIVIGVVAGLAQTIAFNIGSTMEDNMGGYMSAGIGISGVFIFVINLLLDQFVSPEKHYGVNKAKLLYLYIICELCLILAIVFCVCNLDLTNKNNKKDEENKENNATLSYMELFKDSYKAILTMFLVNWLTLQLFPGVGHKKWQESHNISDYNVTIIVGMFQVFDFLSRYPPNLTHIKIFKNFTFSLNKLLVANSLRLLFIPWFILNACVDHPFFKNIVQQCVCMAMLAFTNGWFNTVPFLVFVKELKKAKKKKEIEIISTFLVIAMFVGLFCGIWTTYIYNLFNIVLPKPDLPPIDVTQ
T1 sequence (Q8IBZ9 59-398): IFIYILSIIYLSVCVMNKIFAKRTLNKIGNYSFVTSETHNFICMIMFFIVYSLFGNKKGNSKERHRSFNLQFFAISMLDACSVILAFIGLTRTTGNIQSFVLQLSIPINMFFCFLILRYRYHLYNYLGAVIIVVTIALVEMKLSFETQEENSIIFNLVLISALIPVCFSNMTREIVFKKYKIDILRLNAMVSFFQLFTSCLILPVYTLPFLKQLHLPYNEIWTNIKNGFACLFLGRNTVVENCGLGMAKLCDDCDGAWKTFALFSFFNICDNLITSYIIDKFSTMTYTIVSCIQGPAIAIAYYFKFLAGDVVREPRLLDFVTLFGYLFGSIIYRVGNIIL
T3 sequence (Q9N623 whole entry A220S/I356L/K76T/N326D): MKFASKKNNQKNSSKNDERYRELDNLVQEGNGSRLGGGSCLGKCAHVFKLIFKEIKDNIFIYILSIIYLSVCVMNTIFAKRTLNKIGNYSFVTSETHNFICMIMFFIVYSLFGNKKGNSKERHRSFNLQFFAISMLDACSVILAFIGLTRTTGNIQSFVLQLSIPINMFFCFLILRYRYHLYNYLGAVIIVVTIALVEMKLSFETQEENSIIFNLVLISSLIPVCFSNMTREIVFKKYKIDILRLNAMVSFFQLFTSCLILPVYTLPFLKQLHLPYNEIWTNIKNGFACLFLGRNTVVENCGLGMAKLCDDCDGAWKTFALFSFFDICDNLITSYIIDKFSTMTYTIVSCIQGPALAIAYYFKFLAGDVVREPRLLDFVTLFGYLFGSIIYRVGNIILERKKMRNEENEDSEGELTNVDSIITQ
T4 sequence (Q9N623 whole entry A220S/I356T/K76T/M74I/N326S/N75E/Q271E/R371I): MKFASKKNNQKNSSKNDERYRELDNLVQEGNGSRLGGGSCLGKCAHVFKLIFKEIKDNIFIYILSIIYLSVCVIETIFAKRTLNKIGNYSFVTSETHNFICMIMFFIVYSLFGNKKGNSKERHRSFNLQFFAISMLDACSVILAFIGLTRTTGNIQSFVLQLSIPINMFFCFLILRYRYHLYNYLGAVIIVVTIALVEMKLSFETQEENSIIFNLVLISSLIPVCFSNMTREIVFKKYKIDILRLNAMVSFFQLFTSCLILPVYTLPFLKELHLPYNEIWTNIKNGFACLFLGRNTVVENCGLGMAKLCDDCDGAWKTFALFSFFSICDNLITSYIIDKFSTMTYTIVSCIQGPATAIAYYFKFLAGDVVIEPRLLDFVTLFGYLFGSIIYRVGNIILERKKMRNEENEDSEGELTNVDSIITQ

Molecule	Trans-stimulation data: total [3H]CQ transport (PfCRT^3D7 [2]; [9])	Trans-stimulation data: total [3H]CQ transport (PfCRT^Ecu1110 [5]; [11])	Trans-stimulation data: total [3H]CQ transport (PfNT1; [14])	Trans-stimulation data: total [3H]CQ transport (PfCRT^Dd2 [6]; [11])	PfCRT-mediated [3H]CQ transport, trans-stimulation by injected solute, PfCRTDd2 (PfCRT^Dd2 [6])	Trans-stimulation data: total [3H]CQ transport (non-expressing oocytes [4]; [15])	Trans-stimulation data: PfCRT-mediated [3H]CQ transport (PfCRT^3D7 [2]; [16])	Total [3H]CQ transport, trans-stimulation by injected solute (PfCRT^3D7 [2]; [9])	Total [3H]CQ transport, trans-stimulation by injected solute (PfCRT^Ecu1110 [5]; [11])	Trans-stimulation data: PfCRT-mediated [3H]CQ transport (PfCRT^Ecu1110 [5])	Total [3H]CQ transport, trans-stimulation by injected solute (PfNT1; [14])	Total [3H]CQ transport, trans-stimulation by injected solute (PfCRT^Dd2 [6]; [11])	Trans-stimulation data: PfCRT-mediated [3H]CQ transport (PfCRT^Dd2 [6])	Total [3H]CQ transport, trans-stimulation by injected solute (non-expressing oocytes [4]; [15])	further results
O=CO [Formate]															Cis-inhibition data: total [3H]CQ transport, normalised to the oocyte type control (PfCRT^3D7 [1]): 101 ± 7.3 and 99 ± 3.8 and 100 ± 4.4; Total [3H]CQ transport, cis-inhibition by solute (PfCRT^3D7 [1]): 2.4 ± 0.06 and 3.5 ± 0.07 and 3.3 ± 0.07; PfCRT-mediated [3H]CQ transport, trans-stimulation by injected solute, PfCRT3D7 (PfCRT^3D7 [2]): 0.8 ± 0.01 and 0.8 ± 0.03; Total [3H]CQ transport, trans-stimulation by injected solute (PfCRT^3D7 [2]): 3.8 ± 0.01 and 3.8 ± 0.03; Trans-stimulation data: PfCRT-mediated [3H]CQ transport (PfCRT^3D7 [2]): 99 ± 3.7 and 99 ± 3.8; Trans-stimulation data: total [3H]CQ transport, normalised to the oocyte type control (PfCRT^3D7 [2]): 101 ± 2.9 and 101 ± 2.8; Total [3H]CQ transport, trans-stimulation by injected solute (PfNT1): 3.1 ± 0.08 and 2.3 ± 0.06; Trans-stimulation data: total [3H]CQ transport, normalised to the oocyte type control (PfNT1): 101 ± 3.6 and 100 ± 24; Cis-inhibition data: total [3H]CQ transport, normalised to the oocyte type control (non-expressing oocytes [3]): 100 ± 3.5 and 100 ± 1.8; Total [3H]CQ transport, cis-inhibition by solute (non-expressing oocytes [3]): 2.8 ± 0.03 and 3.2 ± 0.08 and 2.5 ± 0.04; Total [3H]CQ transport, trans-stimulation by injected solute (non-expressing oocytes [4]): 2.5 ± 0.09 and 3.2 ± 0.08; Trans-stimulation data: total [3H]CQ transport, normalised to the oocyte type control (non-expressing oocytes [4]): 101 ± 3.9 and 99 ± 3.5
YFPHFDLS [YS-8]	100 ± 3.5b	99 ± 3.8b	98 ± 3.5b	99 ± 2.8b	97 ± 1.7b % of PfCRTDd2 control	100 ± 2.8b									PfCRT-mediated [3H]CQ transport, trans-stimulation (% PfCRT3D7 control) (PfCRT^3D7 [2]; [test solute]i = 5 mM (intracellular), PfCRT3D7 oocytes, normalised to oocyte type control): 96 ± 2.8 % PfCRT3D7 control; PfCRT-mediated [3H]CQ transport, trans-stimulation (% PfCRT3D7 control) (PfCRT^3D7 [2]; cell marked b: highest intracellular concentration tested was 30 mM due to solubility, PfCRT3D7 oocytes): 98 ± 2.8b % PfCRT3D7 control; Trans-stimulation: total [3H]CQ transport, PfCRT3D7 oocytes (PfCRT^3D7 [2]; [10]): 3.1 ± 0.04b % of PfCRTDd2 control; PfCRT-mediated [3H]CQ transport, trans-stimulation (% PfCRTEcu1110 control) (PfCRT^Ecu1110 [5]; [12]): 98 ± 3.1 % PfCRTEcu1110 control; PfCRT-mediated [3H]CQ transport, trans-stimulation (% PfCRTEcu1110 control) (PfCRT^Ecu1110 [5]; [13]): 97 ± 1.5b % PfCRTEcu1110 control; Trans-stimulation: total [3H]CQ transport, PfCRTEcu1110 oocytes (PfCRT^Ecu1110 [5]; [10]): 32 ± 1.9b % of PfCRTDd2 control; Trans-stimulation: total [3H]CQ transport, PfNT1 oocytes (PfNT1; [10]): 3.3 ± 0.08b % of PfCRTDd2 control; PfCRT-mediated [3H]CQ transport, trans-stimulation (% PfCRTDd2 control) (PfCRT^Dd2 [6]; [12]): 98 ± 1.1 % PfCRTDd2 control; PfCRT-mediated [3H]CQ transport, trans-stimulation (% PfCRTDd2 control) (PfCRT^Dd2 [6]; [13]): 97 ± 1.7b % PfCRTDd2 control; Trans-stimulation: total [3H]CQ transport, PfCRTDd2 oocytes (PfCRT^Dd2 [6]; [10]): 99 ± 2.8b % of PfCRTDd2 control; PfCRT-mediated [3H]CQ transport, cis-inhibition (% PfCRTEcu1110 control) (PfCRT^Ecu1110 [7]; [test solute] = 0.5 mM): 43 ± 3.2 % PfCRTEcu1110 control; PfCRT-mediated [3H]CQ transport, cis-inhibition (% PfCRTEcu1110 control) (PfCRT^Ecu1110 [7]; [test solute] = 1 mM): 33 ± 2.6 % PfCRTEcu1110 control; PfCRT-mediated [3H]CQ transport, cis-inhibition (% PfCRTEcu1110 control) (PfCRT^Ecu1110 [7]; [test solute] = 2 mM): 25 ± 1.5 % PfCRTEcu1110 control; PfCRT-mediated [3H]CQ transport, cis-inhibition (% PfCRTDd2 control) (PfCRT^Dd2 [8]; [test solute] = 0.5 mM): 38 ± 2.7 % PfCRTDd2 control; PfCRT-mediated [3H]CQ transport, cis-inhibition (% PfCRTDd2 control) (PfCRT^Dd2 [8]; [test solute] = 1 mM): 28 ± 0.5 % PfCRTDd2 control; PfCRT-mediated [3H]CQ transport, cis-inhibition (% PfCRTDd2 control) (PfCRT^Dd2 [8]; [test solute] = 2 mM): 17 ± 0.1 % PfCRTDd2 control; Trans-stimulation: total [3H]CQ transport, non-expressing oocytes (non-expressing oocytes [4]; [10]): 2.8 ± 0.05b % of PfCRTDd2 control
DDEGDDDPVPLPNVNA [DA-16, additional peptide, 16 residues]	100 ± 4.5b	99 ± 3.7b	99 ± 2.4b	99 ± 2.7b	100 ± 1.9b % of PfCRTDd2 control	98 ± 3.5b	97 ± 2.2b	3.1 ± 0.02b % of the PfCRTDd2 control	33 ± 1.8b % of the PfCRTDd2 control	98 ± 2.9b	3.3 ± 0.07b % of the PfCRTDd2 control	99 ± 2.7b % of the PfCRTDd2 control	100 ± 1.9b	2.6 ± 0.08b % of the PfCRTDd2 control	
SFGDLSTPDAVMG [SG-13]	99 ± 2.5b	101 ± 2.4b	98 ± 2.4b	100 ± 2.9b	98 ± 3.0b % of PfCRTDd2 control	100 ± 3.6b	97 ± 1.9b	3.1 ± 0.05b % of the PfCRTDd2 control	33 ± 1.4b % of the PfCRTDd2 control	99 ± 1.8b	2.9 ± 0.09b % of the PfCRTDd2 control	100 ± 2.9b % of the PfCRTDd2 control	98 ± 3.0b	3.0 ± 0.04b % of the PfCRTDd2 control	
